Data: paper PMC9500072, “Topical application of an irreversible small molecule inhibitor of lysyl oxidases ameliorates skin scarring and fibrosis” (Nature Communications, 2022)
Like-named read-outs stand apart in the source and are kept apart here.

Legend:
Type in all cases: biochemical
Human Recombinant MAO-B = target: T1, Human Recombinant MAO-B (Homo sapiens, UniProt P27338); experiment: Amine oxidase inhibition profile, MAO-B
T1 sequence (P27338 1-520): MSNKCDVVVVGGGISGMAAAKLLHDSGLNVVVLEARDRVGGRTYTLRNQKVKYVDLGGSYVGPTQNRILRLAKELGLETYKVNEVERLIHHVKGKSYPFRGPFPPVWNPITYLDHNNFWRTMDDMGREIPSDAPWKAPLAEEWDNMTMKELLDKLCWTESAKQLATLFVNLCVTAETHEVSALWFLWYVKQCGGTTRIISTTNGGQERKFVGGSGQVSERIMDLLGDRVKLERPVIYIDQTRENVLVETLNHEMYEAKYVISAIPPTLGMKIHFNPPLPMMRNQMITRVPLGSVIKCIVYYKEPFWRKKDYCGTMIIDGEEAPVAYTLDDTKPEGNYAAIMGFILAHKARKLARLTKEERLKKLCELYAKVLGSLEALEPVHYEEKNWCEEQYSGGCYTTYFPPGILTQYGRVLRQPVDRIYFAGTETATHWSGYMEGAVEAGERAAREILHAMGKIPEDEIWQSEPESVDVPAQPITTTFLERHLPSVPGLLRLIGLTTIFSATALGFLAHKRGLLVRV
Text: Supplem entary Materi als:
Supplementary Table S1: Amine oxidase inhibition profile of PXS -4787, PXS-6302 and
Supplementary Table S2: Perm eability profile of PXS -6302.

Rat Recombinant LOXL2 = target: T2, Rat Recombinant LOXL2 (Rattus norvegicus, UniProt B5DF27); experiment: Amine oxidase inhibition profile, rat LOXL2
T2 construct: made in house; host or cells: HEK-293 clones (provided by Dr. Fernando Rodríguez Pascual)
T2 sequence (B5DF27 26-776): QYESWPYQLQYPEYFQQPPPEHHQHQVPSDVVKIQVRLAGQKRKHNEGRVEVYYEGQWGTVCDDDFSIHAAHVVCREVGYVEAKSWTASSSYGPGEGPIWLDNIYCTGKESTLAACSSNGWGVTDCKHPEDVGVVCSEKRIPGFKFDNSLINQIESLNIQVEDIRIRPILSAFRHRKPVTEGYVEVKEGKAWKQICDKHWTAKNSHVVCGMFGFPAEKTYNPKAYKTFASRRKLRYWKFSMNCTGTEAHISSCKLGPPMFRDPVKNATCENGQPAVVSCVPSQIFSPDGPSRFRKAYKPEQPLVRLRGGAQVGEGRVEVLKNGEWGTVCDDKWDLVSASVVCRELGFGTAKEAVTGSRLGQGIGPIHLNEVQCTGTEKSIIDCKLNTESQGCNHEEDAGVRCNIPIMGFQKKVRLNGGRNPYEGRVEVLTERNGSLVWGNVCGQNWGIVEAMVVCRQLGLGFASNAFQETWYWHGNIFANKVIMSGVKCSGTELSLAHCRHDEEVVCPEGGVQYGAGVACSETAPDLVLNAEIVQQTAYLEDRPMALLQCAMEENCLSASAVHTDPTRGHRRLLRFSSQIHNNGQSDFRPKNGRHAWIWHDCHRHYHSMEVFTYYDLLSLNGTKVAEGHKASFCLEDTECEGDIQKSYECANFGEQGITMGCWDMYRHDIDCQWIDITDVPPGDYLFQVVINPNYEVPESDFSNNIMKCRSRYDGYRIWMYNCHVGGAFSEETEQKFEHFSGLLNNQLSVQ

recombinant human LOXL4 = target: T3, recombinant human LOXL4 (Homo sapiens, UniProt Q96JB6); experiment: Amplex Red oxidation assay, LOXL4 inhibition
T3 construct: Dr. Fernando Rodríguez Pascual, university of Madrid, Spain (academic provider)
T3 sequence (Q96JB6 25-756): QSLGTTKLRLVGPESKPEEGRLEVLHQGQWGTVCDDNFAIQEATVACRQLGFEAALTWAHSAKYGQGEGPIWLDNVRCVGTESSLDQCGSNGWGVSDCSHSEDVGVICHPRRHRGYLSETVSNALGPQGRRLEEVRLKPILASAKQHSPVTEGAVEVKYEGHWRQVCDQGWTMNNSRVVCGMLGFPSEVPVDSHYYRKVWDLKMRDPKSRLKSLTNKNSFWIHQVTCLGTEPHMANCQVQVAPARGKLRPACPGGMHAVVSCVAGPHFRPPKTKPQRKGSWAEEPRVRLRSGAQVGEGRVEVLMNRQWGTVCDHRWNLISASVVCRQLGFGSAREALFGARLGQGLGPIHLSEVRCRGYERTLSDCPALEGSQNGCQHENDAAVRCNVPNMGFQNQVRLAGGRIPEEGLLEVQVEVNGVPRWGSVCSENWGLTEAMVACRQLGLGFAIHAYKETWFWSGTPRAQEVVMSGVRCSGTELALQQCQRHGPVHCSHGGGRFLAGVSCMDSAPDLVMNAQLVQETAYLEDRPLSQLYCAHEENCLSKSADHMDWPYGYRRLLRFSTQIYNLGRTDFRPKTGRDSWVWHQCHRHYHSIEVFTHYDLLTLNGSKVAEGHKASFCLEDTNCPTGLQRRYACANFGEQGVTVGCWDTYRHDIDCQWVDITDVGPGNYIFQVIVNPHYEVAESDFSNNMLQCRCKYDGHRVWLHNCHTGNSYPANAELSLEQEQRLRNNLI
Method: The measurement of the enzymatic activity of all lysyl oxidase family members was based on the detection of hydrogen peroxide with an Amplex-Red oxidation assay, as previously described; miniaturized in 384 well formats, with the appropriate combination of substrate and assay buffer for each individual enzyme. After a 30 min pre-incubation of the enzyme at 37 °C with the test compound (or with different incubation times for the time-dependency assay), one volume of reaction mixture containing 120 μM Amplex Red (AR) (Life Technologies), 1.5 U/mL horseradish peroxidase (HRP) (Sigma-Aldrich) and the specific substrate was added to each sample. The relative fluorescence units (RFU) were then measured every 2.5 min for 30 min at 37 °C, excitation 565 nm and emission 590, on a BMG Clariostar Microplate Reader. All the substrates were used at concentrations corresponding to their Km towards the corresponding enzyme, or with a range of different concentrations for the substrate competition experiments.
Lysyl oxidases assay buffer contained 1.2 M urea, 50 mM sodium borate buffer, pH 8.2 and 100 µM β-aminoproprionitrile (BAPN, Sigma-Aldrich) was used for low control.
Recombinant human LOXL1 was expressed and purified from cDNA (GeneArt) and 10 mM putrescine was used as substrate. Recombinant human and mouse LOXL2 (R&D Systems) were challenged with 5 mM putrescine (Sigma-Aldrich) as the substrate. Rat and dog recombinant LOXL2 were amplified and purified in house from HEK-293 clones kindly provided by Dr. Fernando Rodríguez Pascual, Madrid University, and used in the same conditions as for the human form. 2 mM putrescine was used as the substrate for recombinant human LOXL3 (R&D Systems) and LOXL4 (Dr. Fernando Rodríguez Pascual, university of Madrid, Spain) assays.

[1] = read-out: Recombinant MAO-B IC50
[2] = 30 min pre-incubation, read-out: rh LOXL4 IC50
[3] = read-out: Human Recombinant LOXL4 pIC50±SD (converted)

| SMILES | IC50 (Human Recombinant MAO-B; [1]) | IC50 (Rat Recombinant LOXL2) | IC50 (recombinant human LOXL4; [2]) | inhibition at 30 µM (recombinant human LOXL4; log conc -4.5229, read-out: Fig 2A inhibition (mean)) | inhibition at 10 µM (recombinant human LOXL4; log conc -5, read-out: Fig 2A inhibition (mean)) | inhibition at 3.333 µM (recombinant human LOXL4; log conc -5.4771, read-out: Fig 2A inhibition (mean)) | inhibition at 1.111 µM (recombinant human LOXL4; log conc -5.9542, read-out: Fig 2A inhibition (mean)) | inhibition at 0.3704 µM (recombinant human LOXL4; log conc -6.4313, read-out: Fig 2A inhibition (mean)) | inhibition at 0.1235 µM (recombinant human LOXL4; log conc -6.9083, read-out: Fig 2A inhibition (mean)) | inhibition at 0.0412 µM (recombinant human LOXL4; log conc -7.3851, read-out: Fig 2A inhibition (mean)) | inhibition at 0.0137 µM (recombinant human LOXL4; log conc -7.8633, read-out: Fig 2A inhibition (mean)) | inhibition at 0.0046 µM (recombinant human LOXL4; log conc -8.3372, read-out: Fig 2A inhibition (mean)) | inhibition at […] (recombinant human LOXL4; log conc -8.8239, read-out: Fig 2A inhibition (mean)) | inhibition at 0.0005 µM (recombinant human LOXL4; log conc -9.301, read-out: Fig 2A inhibition (mean)) | IC50 (recombinant human LOXL4; [3]) | IC50 (Human Recombinant MAO-B) | Recombinant MAO-B pIC50 (Human Recombinant MAO-B) | Rat Recombinant LOXL2 pIC50±SD (Rat Recombinant LOXL2) | Human Recombinant LOXL4 pIC50±SD (recombinant human LOXL4) |
| --- | --- | --- | --- | --- | --- | --- | --- | --- | --- | --- | --- | --- | --- | --- | --- | --- | --- | --- | --- |
| NC/C=C(\F)CS(=O)(=O)c1ccccc1 [PXS-4787] | > 100000 nM | 590 nM | 220 nM | 102% | 101% | 98.6% | 89.8% | 66.3% | 36.5% | 14.1% | 8.84% | 2.39% | 0.738% | -0.645% | 200 nM |  |  |  |  |
| NC/C=C(\F)C(F)(F)S(=O)(=O)c1ccccc1 [PXS-6302] |  | 430 nM | 320 nM |  |  |  |  |  |  |  |  |  |  |  | 316 nM | > 30000 nM |  |  |  |
| N#CCCN [BAPN, β-aminoproprionitrile, reference compound] | > 100000 nM | 650 nM | 280 nM |  |  |  |  |  |  |  |  |  |  |  |  |  | < 4 | 6.2 ± 0.2 | 6.6 ± 0.1 |
